Assay results: publication PMC10746708, “A small molecule iCDM-34 identified by in silico screening suppresses HBV DNA through activation of aryl hydrocarbon receptor” (Cell Death Discovery, 2023)

Assays:
[1] = system: promoter of hypoxia inducible factor (HIF); parameters: method as in PMID 34492592; conditions: cited from earlier work
[2] = system: HBV genotype C; test: HBsAg and HBeAg in culture medium by ELISA; format: cell-based; conditions: 30 µM, 7 days
Description: PXB cells were plated on 96-well plate and infected with three genome equivalents per cell of HBV C_AT [33], and the medium was changed every 3 or 4 days. […] After treatment with these compounds, cellular DNA, medium DNA, and total RNA were automatically purified as per our previously established protocol. RNA purification of total RNA from cultured cells in the 24-well plate was performed using the RNeasy Mini Kit (Qiagen, Germantown, MD, USA) according to the manufacturer’s instructions.
HBsAg and HBeAg levels in the cell culture medium were measured using Enzygnost HBsAg 6.0 and Enzygnost HBe monoclonal (Siemens, Munich, Germany), respectively, according to the manufacturer’s instructions.

[3] = system: HBV-infected PXB cells; test: Microarray gene expression analysis of HBV-infected PXB cells; format: cell-based, human
Description: PXB cells cultured in 24-well plates were infected with three genome equivalents per cell of HBV C_AT. After 24 days of infection, the cells were treated with 0.3 and 30 µM iCDM-34 and 1,000 IU/mL IFN-α (Sumitomo Dainippon Pharma, Osaka, Japan) for 7 days (n = 3). Total RNA was extracted from the treated cells and subjected to microarray analysis. The raw and normalized data were uploaded to NCBI Gene Expression Omnibus (GSE180646).
To explore the biological interpretation of the transcriptome data, the canonical pathways and upstream causal networks were identified using knowledge-based functional analysis software from Ingenuity Pathways Analysis (IPA; Ingenuity Systems, Redwood City, CA, USA). […] A statistical measure of the IPA analysis is the activation z-score, which can be used to identify likely regulating molecules based on a statistically significant pattern match of up- and downregulation, and to predict the activation state (either activated or inhibited) of a putative regulator [37]. An absolute value of z-score more than 2 was considered significant.

[4] = system: HCV replicon cells; test: AhR knockdown in HCV replicon cells, luciferase assay; format: cell-based; conditions: 30 μM, 2 days
Description: For knockdown of AhR in the HCV replicon cells, 2 ×10^4 cells of HCV replicon cells were mixed with AhR siRNA (siGENOME Human AHR siRNA – Smart pool, Horizon Discovery, Cambridgeshire, United Kingdom) and X-tremeGene 360 transfection reagent (Roche) and plated on 96 well plates. After 2 days of knockdown, the cells were treated with 30 μM iCDM-17, iCDM-34, and CDM-3008 for 2 days. The quantity of HCV replicons and cell viability were measured. The cellular RNA was purified using Agencourt RNAdvance (Beckman Coulter, San Jose, CA) and reverse-transcribed using PrimeScript RT master mix (Takara Bio, Kusatsu, Japan) to measure amount of AhR and β-actin mRNAs by quantitative PCR.

[5] = system: HBV-infected PXB cells; test: pgRNA and OAS1 mRNA by qPCR in HBV-infected PXB cells; format: cell-based, human; conditions: 7 days
Description: mRNA expression levels were measured by qPCR using specific primers or sets of specific primers and probe. RNA was reverse transcribed using PrimeScript RT Master Mix (Takara Bio, Shiga, Japan) to synthesize complementary DNA (cDNA). OAS1,glyceraldehyde 3-phosphate dehydrogenase (GAPDH), β-actin mRNA expression levels were measured using specific primers and TB Green Premix Ex Taq II (Takara Bio). AhR (Hs00169233_m), CDK1 (Hs00938777_m), CDK2 (Hs01548894_m) mRNA expression levels were measured using specific probe and primer sets (Thermo Fisher Scientific, Waltham, MA, USA) and Probe qPCR mix (Takara Bio) in a CFX96 Touch Real-Time PCR Detection System (Bio-Rad Laboratories, Hercules, CA, USA). The specific primers used in this study were OAS1 (forward primer: 5′-[…]-3′, reverse primer: 5′-[…]-3′), reverse primer: 5′-[…]-3′, and GAPDH (forward primer: 5′-[…]-3′, reverse primer: 5′-[…]-3′). β-actin (forward primer: forward primer: 5′-[…]-3′ and reverse primer: 5′-[…]-3′). Expression levels were determined using the 2^–ΔΔCt method and were normalized to endogenous β-actin mRNA expression levels.
PXB cells were plated on 96-well plate and infected with three genome equivalents per cell of HBV C_AT [33], and the medium was changed every 3 or 4 days. […]

[6] = system: HBV genotype C; test: Anti-HBV activity in human hepatocyte-chimeric mice (liver HBV DNA); format: in vivo, human hepatocyte-chimeric mice (PXB-mice); conditions: 21 days
Description: PXB-mice (human liver chimeric cDNA-uPA^wild/+/SCID male mice) were generated by PhoenixBio. HBV genotype C was then inoculated into the mice via i.v.. After attaining 1.2 × 10^8–3.5 × 10^8 copies/mL of the serum HBV DNA levels, vehicle (10% 2-hydroxypropyl-beta-cyclodextrin and 10% polyethylene glycol 300) or 1 mg/kg iCDM-34 was i.v. injected with or without administration of 0.03 mg/kg ETV orally once a day for 21 days (n = 4). DNA was purified from the liver and its concentration was measured using NanoDrop Spectrophotometer (Thermo Fisher Scientific), followed by measurement of HBV DNA levels by qPCR according to a previously established method. The experimental procedures using the PXB-mice was approved by the Animal Ethics Committee of PhoenixBio.

[7] = system: JAK/STAT signaling; test: Western blotting of phospho-STAT1, STAT2, STAT3 in HCV replicon cells; format: cell-based, human; conditions: 30 μM, 24 h
Description: HCV replicon cells were treated with 30 μM CDM-3008, iCDM-17, and iCDM-34 for 1 day. The cells were lyzed with 1 x SDS sample buffer containing PhosStop, Complete EDTA free, and 1 mM EDTA. After sonication for 30 s, the lysates were centrifuged at 12,000g for 10 min at 4 °C, and then the supernatants were collected. After reducing the 20 μg of supernatants with 50 mM DTT at 98 °C for 2 min, the samples were separated by SDS-PAGE. STAT1, STAT2, STAT3, pSTAT1, pSTAT2, and pSTAT3 were detected by Western blotting using anti-STAT1 (9175, 1/1000), STAT2 (72604, 1/1000), STAT3 (12640, 1/1000), pSTAT1 (Y701) (7649, 1/1000), pSTAT2 (Y690) (88410, 1/1000), and pSTAT3 (Y705) (9145, 1/1000) antibodies (Cell signaling technology, Massachusetts, USA).

[8] = Liver microsomal stability, mouse; format: in vitro ADME; conditions: mouse liver microsomes
Description: Liver microsome stability studies (human, mouse, and rat) were performed at Sumika Chemical Analysis Service (Osaka, Japan) by following an established procedure. A mixture of 1 μM of substrate, 0.5 mg protein/mL of microsomes, and […] β-NADPH was incubated for 30 or 60 min and % remaining substrate was quantitatively measured by LC-MS/MS.

O=C(Nc1ccc(Br)cc1)c1ccn(Cn2cc([N+](=O)[O-])cn2)n1 [iCDM-34]
suppression of HIF promoter [1]: suppress
HBeAg in medium [2]: inhibited
HBsAg in medium [2]: inhibited
expression of ADH1B, G6PC, ADH1A, TAT, SLC38A3, and SLC22A7 [3]: suppressed
expression of CYP1A1, CYP1A2, CYP4A11, CYP1B1, AKR1B15, and AKR1B10 [3]: upregulated
anti-HCV activity (HCV replicon RNA) with AhR siRNA ([4]; AhR siRNA): not present
anti-HCV activity (HCV replicon RNA) with control siRNA ([4]; control siRNA): significant anti-HCV activity
pgRNA expression level ([5]; 30 µM): significantly decreased
expression of OAS1 (ISG) ([5]; 0.0003–30 μM): no increase
HBV DNA in the liver, single agent ([6]; 1 mg/kg i.v. once a day, alone): did not reduce
HBV DNA in the liver, combination with ETV compared with ETV alone ([6]; 1 mg/kg i.v. plus ETV 0.03 mg/kg p.o. once a day): drastically suppressed
phosphorylation of STAT1, STAT2, and STAT3 [7]: not induced
half-life at 1 μM [8]: 33.1 min
remaining at 0.5 h, 1 μM ([8]; 1 μM substrate, 0.5 mg protein/mL, 30 min): 41.2 ± 0.4%
remaining at 1 h, 1 μM ([8]; 1 μM substrate, 0.5 mg protein/mL, 60 min): 21 ± 0.8%
